This passage reports relative viability results from the supplement of paper PMC10307832.

Test in all cases: relative viability (nuclei count vs DMSO), 5 days (fraction); higher = more cells survive
Compound in the assay “Doramapimod + Vorinostat”: Cc1ccc(-n2nc(C(C)(C)C)cc2NC(=O)Nc2ccc(OCCN3CCOCC3)c3ccccc23)cc1 [Doramapimod] + O=C(CCCCCCC(=O)Nc1ccccc1)NO [Vorinostat] (partner 1 µM)
In a few lines:
(§1)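 The day after seeding in 1536-well plates, lung cancer cell lines were treated by pin tool with a single drug, or with a fixed anchor-drug dose together with five library-drug doses (not always all listed) in √10 steps. After 5 days, a combined fix-and-stain solution (final 0.05% Triton X-100, 1% formaldehyde, 1 ug/ml Hoechst) was added. Nuclei counted on 4× images gave relative viability as treated counts over vehicle counts, reported as the median of duplicate plates.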

Compound in the assay “RAF265 + Lapatinib”: Cn1c(Nc2ccc(C(F)(F)F)cc2)nc2cc(Oc3ccnc(-c4ncc(C(F)(F)F)[nH]4)c3)ccc21 [RAF265] + CS(=O)(=O)CCNCc1ccc(-c2ccc3ncnc(Nc4ccc(OCc5cccc(F)c5)c(Cl)c4)c3c2)o1 [Lapatinib] (partner 2 µM)
The essentials:
as §1

Compound in the assay “Doramapimod + Crizotinib”: Cc1ccc(-n2nc(C(C)(C)C)cc2NC(=O)Nc2ccc(OCCN3CCOCC3)c3ccccc23)cc1 [Doramapimod] + C[C@@H](Oc1cc(-c2cnn(C3CCNCC3)c2)cnc1N)c1c(Cl)ccc(F)c1Cl [Crizotinib] (partner 1 µM)
The essentials: as §1

Compound in the assay “IPA-3 + Lapatinib”: C1=CC=C2C(=C1)C=CC(=C2SSC3=C(C=CC4=CC=CC=C43)O)O [IPA-3] + CS(=O)(=O)CCNCc1ccc(-c2ccc3ncnc(Nc4ccc(OCc5cccc(F)c5)c(Cl)c4)c3c2)o1 [Lapatinib] (partner 2 µM)
The essentials: as §1

On to UMC-11, for which the relative viability with Doramapimod + Vorinostat (first compound 0.02 µM) was 0.371; with Doramapimod + Vorinostat (first compound 0.06325 µM), 0.33; with Doramapimod + Vorinostat (first compound 0.2 µM), 0.423; in the assay with Doramapimod + Vorinostat (first compound 0.6325 µM), 0.316; with Doramapimod + Vorinostat (first compound 2 µM), 0.379; in the assay with RAF265 + Lapatinib (first compound 0.01 µM), 0.97. Also, the relative viability came to 0.859 with RAF265 + Lapatinib (first compound 0.03162 µM); 0.968 in the assay with RAF265 + Lapatinib (first compound 0.1 µM); 1.07 with RAF265 + Lapatinib (first compound 0.3162 µM); 0.776 with RAF265 + Lapatinib (first compound 1 µM); 0.58 with Doramapimod + Crizotinib (first compound 0.02 µM); 0.623 in the assay with Doramapimod + Crizotinib (first compound 0.06325 µM). The relative viability in the assay with Doramapimod + Crizotinib (first compound 0.2 µM) amounted to 0.608; with Doramapimod + Crizotinib (first compound 0.6325 µM), 0.609; in the assay with Doramapimod + Crizotinib (first compound 2 µM) it was 0.567; with IPA-3 + Lapatinib (first compound 0.2 µM) it was 0.944; in the assay with IPA-3 + Lapatinib (first compound 0.6325 µM) it was 1.1; with IPA-3 + Lapatinib (first compound 2 µM), 0.956. Further, the relative viability with IPA-3 + Lapatinib (first compound 6.325 µM) amounted to 0.804; in the assay with IPA-3 + Lapatinib (first compound 20 µM) it was 1.06.
